From US20130244929A1 (priority 2010, published 2013)
Read-outs that look alike come from different tables or passages of the source.

Legend:
[1] = test system: MB 5393 (COL), a methicillin-resistant S. aureus strain; assay: Determination of minimum and synergistic inhibitory concentration; type: cell-based; settings: for SIC: presence of imipenem (4 μg/mL); for MIC: Staphylococcus aureus
Description: MB 5393 (COL), a methicillin-resistant S. aureus strain, was inoculated into Trypticase Soy Broth (TSB, BBL) and grown in a humidified incubator for 18 hours with rotary shaking at 220 rpm and kept on ice until used.
A quantity of imipenem (Merck Chemical Collection) was weighed out and dissolved into sterile 10 mM MOPS buffer at pH 7. This solution was diluted to 1600 μg/mL, 200 μg/mL, and 25 μg/mL and filter-sterilized through a 0.45 μm filter. From these solutions, seven 1:2 serial dilutions were prepared using sterile 10 mM MOPS buffer at pH 7. The final concentration ranges tested were 128 to 2 μg/mL, 16 to […], and 2 to 0.03 μg/mL. The solutions were kept refrigerated until used.
Test compounds (EXAMPLES 1-67) were prepared in sterile water or DMSO at a concentration of 3.2 mg/mL. From this solution, 11 serial 1:2 dilutions were prepared using sterile water. The final concentration range tested was 64 to 0.0313 μg/mL. The solutions were kept refrigerated until used.
Two-fold serial dilutions of test compounds were tested in the presence and absence of subinhibitory concentrations of imipenem (4 μg/mL) in 96-well U bottom microliter dishes in microbiological growth media. The plates were inoculated with bacterial cells to a final concentration of ˜5×10^5 CFU/mL. Test plates were incubated stationery at 37° C. for 22-24 hours.
After 22 hours of incubation, the Minimum inhibitory concentrations (MICs) were determined, defined as the lowest concentration of antibiotic that prevented all visible growth in the absence of imipenem. Synergistic inhibitory concentrations (SICs) were determined, defined as the lowest concentration of antibiotic that prevented all visible growth in the presence of imipenen.

SpsB = molecular target: T1, SpsB (Staphylococcus aureus, UniProt P0A070); assay: Inhibition of SpsB enzyme activity (fluorescence-based assay, bacterial membrane fraction); type: biochemical
T1 construct: using a bacterial membrane fraction as a source of SpsB; from tissue
T1 sequence (P0A070 1-191): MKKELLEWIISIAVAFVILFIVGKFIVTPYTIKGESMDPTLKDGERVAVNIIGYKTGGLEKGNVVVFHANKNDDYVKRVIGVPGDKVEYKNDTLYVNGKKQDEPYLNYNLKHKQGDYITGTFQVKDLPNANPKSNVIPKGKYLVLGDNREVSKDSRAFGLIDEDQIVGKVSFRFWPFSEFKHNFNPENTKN
Description: Signal peptidase enzyme activity was measured in a fluorescence-based assay using a bacterial membrane fraction as a source of SpsB (See Bruton et al., 2003, Eur J Med Chem 38:351-356). The SpsB substrate is a synthetic lipopeptide, decanoyl-K(DABCYL)-TPTAKA↓ASKKD-D(EDANS)—NH2 (prepared by JPT Peptide Technologies, Berlin, Germany). Assays were performed with 20 μM peptide substrate (Km≈5 μM) and reactions were initiated with enzyme addition (final protein concentration of 0.6 mg/mL). SpsB mediated cleavage of the peptide substrate was detected as an increase in fluorescence (excitation 340 nm/emission 460 nm).

[2] = MRSA COL, absence of imipenem, 22 hours, read-out: MIC

Compound | SIC ([1]; MRSA COL, 22 hours) | MIC ([1]; MRSA, 22 h) | IC50 (SpsB) | MIC [1, 2]
CCCCCCCCCc1ccc(-c2ccc3cc(C(=O)NCCC(=O)N[C@@H](CCCCN)C(=O)N(C)[C@@H]4C(=O)N[C@@H](C)C(=O)N[C@H](C(=O)O)Cc5ccc(O)c(c5)-c5cc4ccc5O)sc3c2)cc1 [EXAMPLE 47] | G (G: SIC <0.0625) | 1 to 8 µg/mL | < 10 nM | 
CCCCCCCCc1ccc(-c2ccc(C(=O)NCCC(=O)N[C@@H](CCCCN)C(=O)N(C)[C@@H]3C(=O)N[C@@H](C)C(=O)N[C@H](C(=O)O)Cc4ccc(O)c(c4)-c4cc3ccc4O)cc2)cc1 [EXAMPLE 23] | G (G: SIC <0.0625) | < 1 µg/mL | < 10 nM | 
CCCc1ccc(-c2ccc(C(=O)NCCC(=O)NC(CCCCN)C(=O)N(C)[C@@H]3C(=O)N[C@@H](C)C(=O)N[C@H](C(=O)O)Cc4cccc(c4)-c4cccc3c4)cc2)cc1.O=C(O)C(F)(F)F (stereo partly drawn) [EXAMPLE 9, 6-[[(7S,10S,13S)-13-carboxy-10-methyl-8,11-dioxo-9,12-diazatricyclo[13.3.1.1^2,6]icosa-1(19),2(20),3,5,15,17-hexaen-7-yl](methyl)amino]-6-oxo-5-[(3-{[(4′-propylbiphenyl-4-yl)carbonyl]amino}propanoyl)amino]hexan-1-aminium trifluoroacetate] | H (H: SIC 0.062-1) |  | 10 to 50 nM | > 8 µg/mL
CCCCCCCCCc1ccc(-c2ccc(C(=O)NCCC(=O)N[C@@H](CCCCN)C(=O)N(C)[C@@H]3C(=O)N[C@@H](C)C(=O)N[C@H](C(=O)O)Cc4ccc(O)c(c4)-c4cc3ccc4O)c(C)c2)cc1 [EXAMPLE 43] | G (G: SIC <0.0625) | < 1 µg/mL | < 10 nM | 
CCCCCCCCCc1ccc(-c2ccc3sc(C(=O)NCCC(=O)N[C@@H](CCCCN)C(=O)N(C)[C@@H]4C(=O)N[C@@H](C)C(=O)N[C@H](C(=O)O)Cc5ccc(O)c(c5)-c5cc4ccc5O)cc3c2)cc1 [EXAMPLE 45] | G (G: SIC <0.0625) | 1 to 8 µg/mL | < 10 nM | 
CCCCCCCc1ccc2cc(C(=O)NCCC(=O)N[C@@H](CCCCN)C(=O)N(C)[C@@H]3C(=O)N[C@@H](C)C(=O)N[C@H](C(=O)O)Cc4ccc(O)c(c4)-c4cc3ccc4O)cnc2c1 [EXAMPLE 61] | H (H: SIC 0.062-1) | < 1 µg/mL | 10 to 50 nM | 
CCCc1ccc(-c2ccc(C(=O)NCCC(=O)NC(CCCCN)C(=O)N(C)[C@@H]3C(=O)N[C@@H](C)C(=O)N[C@H](C(=O)O)Cc4ccc(OC)c(c4)-c4cc3ccc4OC)cc2)cc1.O=C(O)C(F)(F)F (stereo partly drawn) [EXAMPLE 1, 6-[[(7S,10S,13S)-13-carboxy-3,18-dimethoxy-10-methyl-8,11-dioxo-9,12-diazatricyclo[13.3.1.1^2,6]icosa-1(19),2(20),3,5,15,17-hexaen-7-yl](methyl)amino]-6-oxo-5-[(3-{[(4′-propylbiphenyl-4-yl)carbonyl]amino}propanoyl)amino]hexan-1-aminium trifluoroacetate] | H (H: SIC 0.062-1) |  | 10 to 50 nM | 1 to 8 µg/mL
CCC[C@H]1CC[C@H](c2ccc(-c3ccc(C(=O)NCCC(=O)N[C@@H](CCCCN)C(=O)N(C)[C@@H]4C(=O)N[C@@H](C)C(=O)N[C@H](C(=O)O)Cc5ccc(O)c(c5)-c5cc4ccc5O)cc3)cc2)CC1 [EXAMPLE 46] | G (G: SIC <0.0625) | < 1 µg/mL | < 10 nM | 
C[C@@H]1NC(=O)[C@@H](N(C)C(=O)[C@H](CCCCN)NC(=O)CCNC(=O)c2ccc(CCCCCCCc3ccccc3)cc2)c2ccc(O)c(c2)-c2cc(ccc2O)C[C@@H](C(=O)O)NC1=O [EXAMPLE 38] | G (G: SIC <0.0625) | < 1 µg/mL | < 10 nM | 
C[C@@H]1NC(=O)[C@@H](N(C)C(=O)[C@@H]2CCCN2C(=O)CCNC(=O)c2ccc(CCCCCCCCc3ccccc3)cc2)c2ccc(O)c(c2)-c2cc(ccc2O)C[C@@H](C(=O)O)NC1=O [EXAMPLE 59] | H (H: SIC 0.062-1) | 1 to 8 µg/mL | < 10 nM | 
CCCc1ccc(-c2ccc(C(=O)NCCC(=O)N[C@@H](CCCCNC=N)C(=O)N(C)[C@@H]3C(=O)N[C@@H](C)C(=O)N[C@H](C(=O)O)Cc4ccc(O)c(c4)-c4cc3ccc4O)cc2)cc1 [EXAMPLE 48] | H (H: SIC 0.062-1) | 1 to 8 µg/mL | < 10 nM | 
